Measurements reported in ChEMBL document CHEMBL1156482, “Molecular mechanism of action of monocyclam versus bicyclam non-peptide antagonists in the CXCR4 chemokine receptor” (J Biol Chem, 2007).
Activity calls are given as the source filed them. The calls are words filed in the database; no cut-off is given here.

Tests used:
[1] = tested on: Human immunodeficiency virus 1; experiment: Antiviral activity against HIV1 NDK infected in U87.CD4 cells expressing human CXCR4 D171N mutant; assay type: functional, organism-based; details: Human immunodeficiency virus 1, NDK
[2] = molecular target: C-X-C chemokine receptor type 4 (Homo sapiens, UniProt P61073, Y255A); experiment: (§1) Displacement of [125I]12G5 antibody from transmembrane domain 6 of human CXCR4 Y255A mutant expressed in COS7 cells; assay type: cell-based, COS-7
[3] = tested on: C-X-C chemokine receptor type 4 (Homo sapiens), P61073 [Y255A]; experiment: as §1; assay type: cell-based; details: COS-7
[4] = molecular target: T1, C-X-C chemokine receptor type 4 (Homo sapiens, UniProt P61073); experiment: Displacement of [125I]12G5 antibody from human wild type CXCR4 expressed in COS7 cells; assay type: cell-based, COS-7
T1 sequence (P61073 whole entry, the tested form may be a part): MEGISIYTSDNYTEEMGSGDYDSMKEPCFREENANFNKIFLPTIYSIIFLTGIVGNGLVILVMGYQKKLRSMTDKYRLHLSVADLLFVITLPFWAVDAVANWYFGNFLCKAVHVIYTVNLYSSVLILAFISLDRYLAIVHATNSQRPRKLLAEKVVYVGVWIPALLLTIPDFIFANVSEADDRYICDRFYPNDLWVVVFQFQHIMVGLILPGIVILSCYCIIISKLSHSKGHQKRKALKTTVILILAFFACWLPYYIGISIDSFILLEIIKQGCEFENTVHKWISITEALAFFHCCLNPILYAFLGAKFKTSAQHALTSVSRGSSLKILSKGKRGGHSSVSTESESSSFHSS

[5] = molecular target: C-X-C chemokine receptor type 4 (Homo sapiens, UniProt P61073, E288A); experiment: (§2) Displacement of [125I]12G5 antibody from transmembrane domain 7 of human CXCR4 E288A mutant expressed in COS7 cells; assay type: cell-based, COS-7
Chain of C-X-C chemokine receptor type 4 (Homo sapiens, UniProt P61073, E288A) (P61073 whole entry E288A, the tested form may be a part): as the sequence (P61073 whole entry, the tested form may be a part) above, with E288A counted along it

[6] = tested on: C-X-C chemokine receptor type 4 (Homo sapiens), P61073 [E288A]; experiment: as §2; assay type: cell-based; details: COS-7
Chain of C-X-C chemokine receptor type 4 (Homo sapiens), P61073 [E288A] (P61073 whole entry E288A): as the sequence (P61073 whole entry, the tested form may be a part) above, with E288A counted along it

[7] = tested on: Human immunodeficiency virus 1; experiment: Antiviral activity against HIV1 NDK infected in U87.CD4 cells expressing human CXCR4 E288A mutant; assay type: functional, organism-based; details: Human immunodeficiency virus 1, NDK
[8] = tested on: C-X-C chemokine receptor type 4 (Homo sapiens), P61073 [H281A]; experiment: (§3) Antagonist activity at human CXCR4 H281A mutant expressed in COS7 cells coexpressing G protein Gqi4myr assessed as inhibition of CXCL12-induced phosphatidylinositol turnover; assay type: functional, cell-based; details: COS-7
Chain of C-X-C chemokine receptor type 4 (Homo sapiens), P61073 [H281A] (P61073 whole entry H281A, the tested form may be a part): as the sequence (P61073 whole entry, the tested form may be a part) above, with H281A counted along it

[9] = molecular target: T2, C-X-C chemokine receptor type 4 (Homo sapiens, UniProt P61073, H281A); experiment: as §3; assay type: functional, cell-based, COS-7
T2 sequence (P61073 whole entry H281A): as the sequence (P61073 whole entry, the tested form may be a part) above, with H281A counted along it

[10] = molecular target: T1, C-X-C chemokine receptor type 4; experiment: Antagonist activity at human wild type CXCR4 expressed in COS7 cells coexpressing G protein Gqi4myr assessed as inhibition of CXCL12-induced phosphatidylinositol turnover; assay type: functional, cell-based, COS-7
[11] = tested on: Human immunodeficiency virus 1; experiment: Antiviral activity against HIV1 clinical isolate 10 infected U87.CD4 cells expressing human CXCR4 E288A mutant; assay type: functional, organism-based; details: Human immunodeficiency virus 1, U87.CD4
[12] = molecular target: C-X-C chemokine receptor type 4 (Homo sapiens, UniProt P61073, V196A); experiment: (§4) Displacement of [125I]12G5 antibody from transmembrane domain 5 of human CXCR4 V196A mutant expressed in COS7 cells; assay type: cell-based, COS-7
Chain of C-X-C chemokine receptor type 4 (Homo sapiens, UniProt P61073, V196A) (P61073 whole entry V196A, the tested form may be a part): as the sequence (P61073 whole entry, the tested form may be a part) above, with V196A counted along it

[13] = tested on: C-X-C chemokine receptor type 4 (Homo sapiens), P61073 [V196A]; experiment: as §4; assay type: cell-based; details: COS-7
Chain of C-X-C chemokine receptor type 4 (Homo sapiens), P61073 [V196A] (P61073 whole entry V196A): as the sequence (P61073 whole entry, the tested form may be a part) above, with V196A counted along it

[14] = tested on: Human immunodeficiency virus 1; experiment: Antiviral activity against HIV1 NDK infected in U87.CD4 cells expressing human wild type CXCR4; assay type: functional, organism-based; details: Human immunodeficiency virus 1, NDK
[15] = tested on: C-X-C chemokine receptor type 4 (Homo sapiens), P61073 [H281A]; experiment: (§5) Displacement of [125I]12G5 antibody from transmembrane domain 7 of human CXCR4 H281A mutant expressed in COS7 cells; assay type: cell-based; details: COS-7
[16] = molecular target: T2, C-X-C chemokine receptor type 4; experiment: as §5; assay type: cell-based, COS-7
[17] = tested on: Human immunodeficiency virus 1; experiment: Antiviral activity against HIV1 NDK infected in U87.CD4 cells expressing human CXCR4 D262N mutant; assay type: functional, organism-based; details: Human immunodeficiency virus 1, NDK
[18] = tested on: C-X-C chemokine receptor type 4 (Homo sapiens), P61073 [T287A]; experiment: (§6) Displacement of [125I]12G5 antibody from transmembrane domain 7 of human CXCR4 T287A mutant expressed in COS7 cells; assay type: cell-based; details: COS-7
Chain of C-X-C chemokine receptor type 4 (Homo sapiens), P61073 [T287A] (P61073 whole entry T287A, the tested form may be a part): as the sequence (P61073 whole entry, the tested form may be a part) above, with T287A counted along it

[19] = molecular target: C-X-C chemokine receptor type 4 (Homo sapiens, UniProt P61073, T287A); experiment: as §6; assay type: cell-based, COS-7
Chain of C-X-C chemokine receptor type 4 (Homo sapiens, UniProt P61073, T287A) (P61073 whole entry T287A): as the sequence (P61073 whole entry, the tested form may be a part) above, with T287A counted along it

[20] = tested on: Human immunodeficiency virus 1; experiment: Antiviral activity against HIV1 clinical isolate 10 infected in U87.CD4 cells expressing human CXCR4 D171ND262N mutant; assay type: functional, organism-based; details: Human immunodeficiency virus 1, U87.CD4
[21] = tested on: Human immunodeficiency virus 1; experiment: Antiviral activity against HIV1 NL43 infected in U87.CD4 cells expressing human CXCR4 E288A mutant; assay type: functional, organism-based
[22] = tested on: Human immunodeficiency virus 1; experiment: Antiviral activity against HIV1 clinical isolate 10 infected in U87.CD4 cells expressing human CXCR4 H281A mutant; assay type: functional, organism-based; details: Human immunodeficiency virus 1, U87.CD4
[23] = molecular target: C-X-C chemokine receptor type 4 (Homo sapiens, UniProt P61073, G207F); experiment: (§7) Displacement of [125I]12G5 antibody from transmembrane domain 5 of human CXCR4 G207F mutant expressed in COS7 cells; assay type: cell-based, COS-7
[24] = tested on: C-X-C chemokine receptor type 4 (Homo sapiens), P61073 [G207F]; experiment: as §7; assay type: cell-based; details: COS-7
[25] = tested on: C-X-C chemokine receptor type 4 (Homo sapiens), P61073 [F172A]; experiment: (§8) Antagonist activity at human CXCR4 F172A mutant expressed in COS7 cells coexpressing G protein Gqi4myr assessed as inhibition of CXCL12-induced phosphatidylinositol turnover; assay type: functional, cell-based; details: COS-7
[26] = molecular target: C-X-C chemokine receptor type 4 (Homo sapiens, UniProt P61073, F172A); experiment: as §8; assay type: functional, cell-based, COS-7
[27] = molecular target: C-X-C chemokine receptor type 4 (Homo sapiens, UniProt P61073, S263A); experiment: (§9) Displacement of [125I]12G5 antibody from transmembrane domain 6 of human CXCR4 S263A mutant expressed in COS7 cells; assay type: cell-based, COS-7
Chain of C-X-C chemokine receptor type 4 (Homo sapiens, UniProt P61073, S263A) (P61073 whole entry S263A, the tested form may be a part): as the sequence (P61073 whole entry, the tested form may be a part) above, with S263A counted along it

[28] = tested on: C-X-C chemokine receptor type 4 (Homo sapiens), P61073 [S263A]; experiment: as §9; assay type: cell-based; details: COS-7
Chain of C-X-C chemokine receptor type 4 (Homo sapiens), P61073 [S263A] (P61073 whole entry S263A): as the sequence (P61073 whole entry, the tested form may be a part) above, with S263A counted along it

[29] = tested on: Human immunodeficiency virus 1; experiment: Antiviral activity against HIV1 NL43 infected in U87.CD4 cells expressing human CXCR4 D171N/D262N mutant; assay type: functional, organism-based
[30] = molecular target: C-X-C chemokine receptor type 4 (Homo sapiens, UniProt P61073, D171N); experiment: (§10) Antagonist activity at human CXCR4 D171N mutant expressed in COS7 cells coexpressing G protein Gqi4myr assessed as inhibition of CXCL12-induced phosphatidylinositol turnover; assay type: functional, cell-based, COS-7
[31] = tested on: C-X-C chemokine receptor type 4 (Homo sapiens), P61073 [D171N]; experiment: as §10; assay type: functional, cell-based; details: COS-7
[32] = molecular target: C-X-C chemokine receptor type 4 (Homo sapiens, UniProt P61073, H203A); experiment: (§11) Antagonist activity at human CXCR4 H203A mutant expressed in COS7 cells coexpressing G protein Gqi4myr assessed as inhibition of CXCL12-induced phosphatidylinositol turnover; assay type: functional, cell-based, COS-7
[33] = tested on: C-X-C chemokine receptor type 4 (Homo sapiens), P61073 [H203A]; experiment: as §11; assay type: functional, cell-based; details: COS-7
[34] = tested on: C-X-C chemokine receptor type 4 (Homo sapiens), P61073 [N176A]; experiment: (§12) Displacement of [125I]12G5 antibody from extracellular loop 2 of human CXCR4 N176A mutant expressed in COS7 cells; assay type: cell-based; details: COS-7
[35] = molecular target: C-X-C chemokine receptor type 4 (Homo sapiens, UniProt P61073, N176A); experiment: as §12; assay type: cell-based, COS-7
[36] = molecular target: C-X-C chemokine receptor type 4 (Homo sapiens, UniProt P61073, I259A); experiment: (§13) Antagonist activity at transmembrane domain 6 of human CXCR4 I259A mutant expressed in COS7 cells coexpressing G protein Gqi4myr assessed as inhibition of CXCL12-induced phosphatidylinositol turnover; assay type: functional, cell-based, COS-7
Chain of C-X-C chemokine receptor type 4 (Homo sapiens, UniProt P61073, I259A) (P61073 whole entry I259A, the tested form may be a part): as the sequence (P61073 whole entry, the tested form may be a part) above, with I259A counted along it

[37] = tested on: C-X-C chemokine receptor type 4 (Homo sapiens), P61073 [I259A]; experiment: as §13; assay type: functional, cell-based; details: COS-7
Chain of C-X-C chemokine receptor type 4 (Homo sapiens), P61073 [I259A] (P61073 whole entry I259A): as the sequence (P61073 whole entry, the tested form may be a part) above, with I259A counted along it

[38] = tested on: Human immunodeficiency virus 1; experiment: Antiviral activity against HIV1 NL43 infected in U87.CD4 cells expressing human CXCR4 H281A mutant; assay type: functional, organism-based; details: Human immunodeficiency virus 1, NL43, U87.CD4
[39] = molecular target: C-X-C chemokine receptor type 4 (Homo sapiens, UniProt P61073, Q200W); experiment: (§14) Antagonist activity at human CXCR4 Q200W mutant expressed in COS7 cells coexpressing G protein Gqi4myr assessed as inhibition of CXCL12-induced phosphatidylinositol turnover; assay type: functional, cell-based, COS-7
[40] = tested on: C-X-C chemokine receptor type 4 (Homo sapiens), P61073 [Q200W]; experiment: as §14; assay type: functional, cell-based; details: COS-7

c1ccc(CNCc2ccc(CN3CCCNCCNCCCNCC3)cc2)nc1
IC50 [1]: 22000 nM | Ki [2]: 450 nM | logKi [3]: -6.35 | Ki [4]: 110 nM | logKi ([4]; COS-7): -6.95 | Ki [5]: 11000 nM | logKi [6]: -4.94 | IC50 [7]: > 5500 nM | logIC50 [8]: -5.8 | Ki [9]: 1600 nM | Ki [10]: 10 nM | logIC50 ([10]; COS-7): -8.01 | IC50 [11]: 1570 nM | Ki [12]: 1800 nM | logKi [13]: -5.74 | IC50 [14]: 2700 nM | logKi [15]: -3.29 | Ki [16]: 519000 nM | IC50 [17]: 5380 nM | logKi [18]: -5.71 | Ki [19]: 2000 nM | IC50 [20]: 4040 nM | Activity [21]: inactive | IC50 [22]: 1950 nM | Ki [23]: 160 nM | logKi [24]: -6.81 | logIC50 [25]: -7.93 | Ki [26]: 10 nM | Ki [27]: 530 nM | logKi [28]: -6.27 | Activity [29]: Active | Ki [30]: 180 nM | logIC50 [31]: -6.76 | Ki [32]: 40 nM | logIC50 [33]: -7.43 | logKi [34]: -6.98 | Ki [35]: 100 nM | Ki [36]: 30 nM | logIC50 [37]: -7.55 | IC50 [38]: > 1100 nM | Ki [39]: 220 nM | logIC50 [40]: -6.65
